Converted amounts (≈) assume the structure as drawn. One block for each compound: values may come before it.
What was measured:
[1] = test system: lung adenocarcinoma (CL1-5); parameters: method as in ref 1 (SI); settings: CL1-5-inoculated mice, free prodrug; ref 1 (SI); cited from earlier work
MCF-7 [2] = test: Cell proliferation assay (CCK-8), MCF-7; format: cell-based, human
Experimental: Cells were seeded at a density of five thousand cells per well in 96-well plates and left to incubate overnight. Triplicate samples of free SN38, free SN38-G, and SN38-G liposomes were added at various dilutions and incubated for 24 h. CCK-8 stock solution was thawed at 37 °C in a water bath, 10 μL was added to each well, and plates were placed in the incubator for up to 4 h before measuring the absorbance at 450 nm using a microplate reader. Inhibition of cell proliferation was determined as 2 ″%ofinhibitioncomparedtocontrol^″=absorbanceat450nm(sample)×100/Absorbanceat450nm(control)
Sequential Esterification, Hydrolysis, Enzymatic Digestion, and Biological Activity Assessment of SN38-G to SN38. Commercial SN38-G was esterified in methanol or ethanol using sulfuric acid (H₂SO₄) and DMSO, following the procedure detailed in the Methods section under Synthesis of amphiphilic SN38-Gmet and SN38-Geth from SN38-G. The formation of the esters was monitored by analytical HPLC. For analysis, 2 µL of the reaction mixture was diluted in 248 µL of HPLC mobile phase, and 2.5 µL was injected with the fluorescence detector set at an excitation/emission wavelength of 375/430 nm. Hydrolysis of SN38-Gmet and SN38-Geth was carried out at 70 °C in 10 mM HEPES buffer, adjusted to pH 8. Samples were taken at 0, 5, 30, and 60 minutes, diluted in HPLC mobile phase (70% methanol, 25 mM citric acid, pH 3), and incubated at 70 °C for 10 minutes before injection. To generate active SN38, SN38-G was enzymatically cleaved by beta-glucuronidase following pH adjustment to 7 with phosphate buffer. The biological activity of the resulting SN38 was evaluated in an in-vitro cytotoxicity assay using human MCF-7 breast cancer cells, in comparison to commercial SN38. Cells were seeded at 5,000 cells per well in 96-well plates and incubated overnight. Triplicate samples of either commercial SN38 or SN38 generated from SN38-G were added at various dilutions and incubated for 24 hours. Afterward, 10 µL of CCK-8 solution (pre-warmed to 37 °C) was added to each well, and the plates were returned to the incubator for up to 4 hours. Absorbance was then measured at 450 nm using a microplate reader. Cell proliferation inhibition was calculated as: % inhibition = [Abs₄₅₀(sample) / Abs₄₅₀(control)] × 100 .
Cytotoxicity Assay in Cancerous and Non -Cancerous Cell Lines. […]
For the cytotoxicity assay cells were seeded at a density of 5,000 cells per well in 96 -well plates and allowed to adhere overnight. […] Absorbance at 450 nm was measured using a microplate reader. Cell viability was calculated as a percentage of untreated control cells. […]

MDA-MB-231 [3] = test: Cellular regeneration of SN38 from SN38-G liposomes, MDA-MB-231; format: cell-based; settings: 100 μM inhibitor, 2 μM SN38-G liposomes
MCF-7 [4] = test: Cellular regeneration of SN38 from SN38-G liposomes, MCF-7; format: cell-based, human; settings: 100 μM inhibitor, 2 μM SN38-G liposomes
physchem [5] = settings: for logP at 24 h: pH 6, Log P
Experimental: The log P, defined here by partitioning between 1-octanol and pH 6 buffer (Figure c), was measured to determine compound affinity for organic phases such as the lipid bilayer.
(§1) We added SN38, SN38-G, SN38-G^met, and SN38-G^eth in 10 mM MES pH 6 until it reached saturation and stopped dissolving. Saturated solutions were kept under agitation at room temperature for 24 h and centrifuged at 20,000g for 30 min at 24 °C. Analytical HPLC was then used to quantify the supernatants. The partitioning between 1-octanol and water was determined in 500 μL of 10 mM MES at pH 6 and 500 μL of 1-octanol. […] We allowed equilibration between the 2 phases for 24 h at room temperature under constant shaking. After this, the tubes were centrifuged at 20,000g for 30 min at 24 °C, and samples from each phase were analyzed by analytical HPLC. Using 70% methanol mobile phase conveniently dissolves 1-octanol, ensuring precise estimation of drugs’ quantities.

MDA-MB-231 [6] = test: Cell proliferation assay (CCK-8), MDA-MB-231; format: cell-based
Experimental: Cells were seeded at a density of five thousand cells per well in 96-well plates and left to incubate overnight. […] Inhibition of cell proliferation was determined as 2 ''%[…]^''=absorbanceat450nm(sample)×100/Absorbanceat450nm(control)

physchem [7] = settings: for solubility at 24 h: pH 6, aqueous buffer, thermodynamic from solid, water solubility; for water solubility: 24 h, pH 6
Experimental: Water solubility tests were conducted in a pH 6 buffer (Figure b) to prevent the hydrolysis of the ester bond.
as §1

beta-glucuronidase = test: Enzymatic digestion of SN38-G to SN38 by beta-glucuronidase; format: biochemical; settings: 37 °C
[8] = Drug stability: retention in liposomes on dialysis in 0.9% NaCl with 10% FBS at 37 °C; format: physicochemical; settings: dialysis 0.9% NaCl with 10% FBS, over 15 days
Experimental: This stability is consistent with the physicochemical properties of SN38-G and its intraliposomal complexation with calcium, which limits membrane permeability.
We diluted SN38-G liposomes at 1 mg/mL of phospholipids in 2 mL of 0.9% NaCl, complemented with 10% FBS, before transferring to dialysis membrane (Visking Tubing, diameter 15.9 mm, molecular weight 12,000–14,000). We ran the dialysis at 37 °C in the dark against 2 L, to which we added 0.02% sodium azide to prevent bacterial growth, under constant stirring. Samples of 2 μL of liposomes were taken at different intervals and diluted in 248 μL of HPLC mobile phase (70% methanol, […], pH 3), lysed for 10 min at 70 °C, and injected (Volume = 2.5 μL) in the C18 reverse phase HPLC system to analyze the total remaining amount of encapsulated SN38-G.

[9] = Alkaline hydrolysis of SN38-G esters back to SN38-G (10 mM HEPES pH 8, 70 °C, HPLC); format: physicochemical; settings: alkaline conditions (10 mM HEPES pH 8), after 1 h
Experimental: Accordingly, we formed a loadable amphiphilic SN38-G by esterification in excess alcohol at elevated temperatures using a sulfuric acid (H2SO4) catalyst. Esterification was performed in either methanol or ethanol, resulting in a methylester (SN38-G^met) and an ethylester (SN38-G^eth). Within 12 h, over 95% of SN38-G was esterified to SN38-G^met and SN38-G^eth (Figure a). Both esters are expected to have different levels of amphiphilicity due to their respective ester length, which might influence their loading behavior. We then tested the reversibility of the esterification to regenerate hydrophilic SN38-G through alkaline hydrolysis, which is a crucial step to ensure proper retention after loading. The hydrolysis rates of SN38-G^met and SN38-G^eth under alkaline conditions at 70 °C, which simulates the elevated pH compartment of liposomes during loading, were adequate. After 1 h, 96.1% (±2.6) of SN38-G^met and 95.5% (±2.1) of SN38-G^eth were hydrolyzed back to SN38-G (Figure b). The hydrolysis duration aligns with the typical incubation time between drugs and liposomes during loading. […]
Hydrolysis of SN38-G^met and SN38-G^eth was performed in 10 mM HEPES adjusted to pH 8 to simulate the alkaline internal compartment of the liposomes during drug loading. We monitored the reaction at 70 °C and took samples at 0, 5, 30, and 60 min of incubation time. […]

[10] = test system: ovarian cancer model (OVCAR-3); parameters: method as in ref 7 (SI); settings: equitoxic dose; ref 7 (SI); cited from earlier work

Compound: 9-aminocamptothecin glucuronide [9AC glucuronide]
- mice cured [1]: Up to 85%

Compound: CCc1c2c(nc3ccc(OC(=O)N4CCC(N5CCCCC5)CC4)cc13)-c1cc3c(c(=O)n1C2)COC(=O)[C@]3(O)CC [CPT-11]
- cytotoxicity (MCF-7 [2]; MCF-7, 24 h, CCK-8): low cytotoxicity

Compound: O=C(O)[C@@H](O)[C@H]1OC(=O)[C@H](O)[C@H]1O [D-saccharic acid 1,4-lactone]
- effect on production of SN38 in cells (MDA-MB-231 [3]): effectively suppressed
- effect on production of SN38 in cells (MCF-7 [4]): effectively suppressed

- higher affinity for the organic phase (physchem [5]; 1-octanol vs pH 6 buffer): 53 fold
- logP at 24 h (physchem [5]): 1.73
- IC50 (MDA-MB-231 [6]; Homo sapiens, MDA-MB-231, 24 h, CCK-8): 24 nM
- IC50 (MCF-7 [2]; Homo sapiens, MCF7, MCF-7, 24 h, CCK-8): 5.82 nM
- solubility at 24 h (physchem [7]): ~7.45 µg/mL (≈ 0.019 mM)
Compound: CCc1c2c(nc3ccc(O)cc13)-c1cc3c(c(=O)n1C2)COC(=O)[C@]3(O)CC [SN38, 7-ethyl-10-hydroxycamptothecin]
- in vitro cytotoxicity of SN38 regenerated from reformed SN38-G (MCF-7 [2]; SN38 made by esterification, hydrolysis and beta-glucuronidase digestion of SN38-G, MCF-7, 24 h): comparable to that of a commercial SN38 standard

Compound: CCc1c2c(nc3ccc(O[C@@H]4O[C@H](C(=O)O)[C@@H](O)[C@H](O)[C@H]4O)cc13)-c1cc3c(c(=O)n1C2)COC(=O)[C@]3(O)CC [SN38-G, SN38 glucuronide]
- higher affinities for the aqueous phase (physchem [5]; 1-octanol vs pH 6 buffer): over 775 fold
- logP at 24 h (physchem [5]): -2.89
- cleavage by beta-glucuronidase to SN38 (beta-glucuronidase): rapidly cleaved
- reduction of toxicity versus SN38 (MDA-MB-231 [6]; MDA-MB-231): 550.5 fold
- reduction of toxicity versus SN38 (MCF-7 [2]; MCF-7): 728.5 fold
- water solubility (physchem [7]): 62800 µg/mL (≈ 110 mM)
- solubility at 24 h (physchem [7]): ~59500 µg/mL (≈ 105 mM)
- retention within liposomes [8]: excellent retention

Compound: CCOC(=O)[C@H]1O[C@@H](Oc2ccc3nc4c(c(CC)c3c2)Cn2c-4cc3c(c2=O)COC(=O)[C@]3(O)CC)[C@H](O)[C@@H](O)[C@@H]1O [SN38-G^eth]
- logP at 24 h (physchem [5]): 0.66
- hydrolyzed back to SN38-G [9]: 95.5%
- water solubility (physchem [7]): 1500 µg/mL (≈ 2.51 mM)
- solubility at 24 h (physchem [7]): ~1500 µg/mL (≈ 2.51 mM)
- retention within liposomes [8]: rapid clearance

Compound: CCc1c2c(nc3ccc(O[C@@H]4O[C@H](C(=O)OC)[C@@H](O)[C@H](O)[C@H]4O)cc13)-c1cc3c(c(=O)n1C2)COC(=O)[C@]3(O)CC [SN38-G^met]
- logP at 24 h (physchem [5]): 0.07
- hydrolyzed back to SN38-G [9]: 96.1%
- water solubility (physchem [7]): 3860 µg/mL (≈ 6.63 mM)
- solubility at 24 h (physchem [7]): ~3860 µg/mL (≈ 6.63 mM)
- retention within liposomes [8]: rapid clearance

Compound: COc1cccc2c1C(=O)c1c(O)c3c(c(O)c1C2=O)C[C@@](O)(C(=O)CO)C[C@@H]3O[C@H]1C[C@H](N)[C@H](O)[C@H](C)O1 [doxorubicin]
- tumor inhibition [10]: 56%

Source: article PMC12284848, “Safe and Efficient Intracellular Release of SN38 via Lysosomal-Responsive SN38‑G Loaded Liposomes” (ACS Applied Bio Materials, 2025)
